Data from patent EP4721746A1, “TREATMENT OF MALIGNANT TUMOR” (SymBio Pharmaceuticals Limited, priority 2023, dated 2024).

Key:
[1] = system: NK/T-cell lymphoma cell lines; test: CellTiter-Glo 2.0 cell viability assay, NK/T-cell lymphoma cell lines; type: cell-based; conditions: 11 NK/T-cell lymphoma cell lines; Fig. 1
Experimental: The effect of BCV on cell viability was examined in 11 different NK/T-cell lymphoma cell lines. Cell viability was quantified using Promega CellTiter-Glo(registered trademark) 2.0 Cell Viability Assay (Promega, Madison, Wisconsin, USA) according to the manufacturer's protocol. Specifically, cells were plated in a 96-well plate at a concentration of 2×10^3 cells in 100 µL of culture medium, and the drug (BCV) was added at each concentration. After each time point, Promega CellTiter-Glo (registered trademark) 2.0 Cell Viability Assay reagent was added to the wells and incubated at room temperature for 10 minutes, and subsequently, absorbance at 480 nm was measured using a Tecan M200 Infinite 96-well plate reader and iControl software 1.6 (Tecan, Männedorf, Switzerland). Cell viability was calculated as a percentage of the control absorbance. The growth-inhibitory effect was analyzed by generating a dose-response curve as a plot of the percentage of viable cells against the drug concentration, and their IC50s were estimated using GraphPad Prism version 8.0.2 (GraphPad Software). All reactions were performed in triplicate.

[2] = system: NK/T-cell lymphoma cells (NK-S1); test: In vivo study, NSG mice inoculated with NK-S1
Experimental: (§1) 0.5 x 10^6 cells of NK-S1 were inoculated into 6-week-old female NSG mice, and BCV or a control solvent was administered intraperitoneally at a dosage of 40 mg/kg twice weekly. Tumor measurements were recorded twice weekly until the tumor size in the control group reached approximately 2000 mm^3. Mice were euthanized according to the IACUC guidelines. The tumor sizes of the experimental group and the control group (n=8 per group) were averaged at each time point (Days 1, 5, 8, 12, and 15) and compared statistically. Throughout the experiment, signs of toxicity including diarrhea and weight loss were monitored.

[3] = system: T-cell lymphoma cell lines; test: CellTiter-Glo 2.0 cell viability assay, T-cell lymphoma cell lines; type: cell-based; conditions: 11 T-cell lymphoma cell lines; Fig. 9
Experimental: The effect of BCV on the viability of 11 different T-cell lymphoma cell lines was examined. Cell viability was quantified using Promega CellTiter-Glo(registered trademark) 2.0 Cell Viability Assay (Promega, Madison, Wisconsin, USA) according to the manufacturer's protocol. Specifically, cells were plated in a 96-well plate at a concentration of 2×10^3 cells in 100 µL of culture medium, and the drug was added at each concentration. After each time point, Promega CellTiter-Glo(registered trademark) 2.0 Cell Viability Assay reagent was added to the wells and incubated at room temperature for 10 minutes, and subsequently, absorbance at 480 nm was measured using a Tecan M200 Infinite 96-well plate reader and iControl software 1.6 (Tecan, Männedorf, Switzerland). Cell viability was calculated as a percentage of a control absorbance. The growth-inhibitory effect was analyzed by generating a dose-response curve as a plot of the percentage of viable cells against the drug concentration, and their IC50s were estimated using GraphPad Prism version 8.0.2 (GraphPad Software). All reactions were performed in triplicate.

[4] = system: T-cell lymphoma cells (Z4739); test: In vivo study, NSG mice inoculated with Z4739
Experimental: as §1, with “of Z4739” for “of NK-S1”, “recorded at each time point (Days 4, 7, 11, 18, and 21)” for “recorded twice weekly”, “approximately 2500” for “approximately 2000”, “sizes and weights” for “sizes”, “group (n=5” for “group (n=8”, “averaged on Day 21” for “averaged at each time point (Days 1, 5, 8, 12, and 15)”

[5] = system: Z4739 cell line; test: Whole transcriptome sequencing and GSEA of BCV-treated Z4739 cell line; type: cell-based; conditions: Z4739 treated with 0.1 and 1 µg/mL of BCV
Experimental: The effect of BCV on the gene expression of a T-cell lymphoma cell line was examined. Whole transcriptome sequencing of the Z4739 cell line treated with 0.1 and 1 µg/mL of BCV was performed, and Gene set enrichment analysis (GSEA) was performed using the Molecular Signatures Database (MSigDB) Hallmark gene set. […] Individual gene expression profiles (IFNB1, IFNY, CCL5, CXCL10, MYC) obtained from the whole transcriptome sequencing results were expressed as the number of transcripts detected per million reads.

[6] = system: Z4739 cells; test: Western blotting of lysates of BCV-treated Z4739 cells; type: cell-based; conditions: Z4739 treated with 0.1 and 1 µg/mL of BCV; Western blot, Fig. 13
Experimental: Lysates of Z4739 cells treated with 0.1 and 1 µg/mL of BCV were separated by SDS-PAGE using 4-15% Mini-PROTEAN™ TGX Stain-Free™ Protein Gels (Bio-Rad Laboratories, Hercules, CA, USA), and the separated components were transferred to a 0.2 µm PVDF membrane (Bio-Rad Laboratories, Hercules, California, USA). After blocking for 1 hour in a TBST solution (50 mM Tris/HCl, pH 7.4, 150 mM NaCl, 0.1% Tween-20) containing 5% skimmed milk powder (Bio-Rad Laboratories, Hercules, CA, USA) or 5% bovine serum albumin (Sigma-Aldrich, Darmstadt, Germany), the membrane was exposed to respective primary antibodies overnight at 4°C with gentle shaking. Furthermore, exposure to an HRP-conjugated anti-rabbit or anti-mouse antibody (Cytiva, Washington D.C., USA) was performed for 1 hour, and finally, chemiluminescent detection was performed using a SuperSignal Substrate Western Blotting Kit (Thermo Fisher Scientific, MA, USA) and imaged on a ChemiDoc™ XRS+ system (Bio-Rad Laboratories, Hercules, California, USA) using Image Lab™ software.

[7] = system: B-cell lymphoma cell lines; test: CellTiter-Glo 2.0 cell viability assay, B-cell lymphoma cell lines; type: cell-based; conditions: 19 B-cell lymphoma cell lines; Fig. 14
Experimental: The effect of BCV on cell viability was examined in 19 different B-cell lymphoma cell lines and a CML cell line (K-562) as a control. Cell viability was quantified using Promega CellTiter-Glo(registered trademark) 2.0 Cell Viability Assay (Promega, Madison, Wisconsin, USA) according to the manufacturer's protocol. Specifically, cells were plated in a 96-well plate at a concentration of 2×10^3 cells in 100 µL of culture medium, and the drug (BCV) was added at each concentration. After each time point, Promega CellTiter-Glo(registered trademark) 2.0 Cell Viability Assay reagent was added to the wells and incubated at room temperature for 10 minutes, and subsequently, absorbance at 480 nm was measured using a Tecan M200 Infinite 96-well plate reader and iControl software 1.6 (Tecan, Männedorf, Switzerland). Cell viability was calculated as a percentage of a control absorbance. The growth-inhibitory effect was analyzed by generating a dose-response curve as a plot of the percentage of viable cells against the drug concentration, and their IC50s were estimated using GraphPad Prism version 8.0.2 (GraphPad Software). All reactions were performed in triplicate.

[8] = system: B-cell lymphoma cells (OCI-LY19); test: In vivo study, NSG mice inoculated with OCI-LY19
Experimental: as §1, with “of OCI-LY19” for “of NK-S1”, “recorded at each time point (Days 1, 5, 6, and 7)” for “recorded twice weekly”, “approximately 2500” for “approximately 2000”, “sizes and weights” for “sizes”, “group (n=5” for “group (n=8”, “averaged on Day 7” for “averaged at each time point (Days 1, 5, 8, 12, and 15)”

CCCCCCCCCCCCCCCCOCCCOP(=O)(O)CO[C@H](CO)Cn1ccc(N)nc1=O [BCV, [(2S)-1-(4-amino-2-oxopyrimidin-1-yl)-3-hydroxypropan-2-yl]oxymethyl-(3-hexadecoxypropoxy)phosphinic acid]
Sensitivity to BCV [1]: varied for each cell line | viability of NK/T-cell lymphoma cells [1]: decreased | animal's health status ([2]; NK-S1 in NSG mice, 40 mg/kg intraperitoneally twice weekly): good | enlargement of lymphoma (tumor size) ([2]; NK-S1 in NSG mice, 40 mg/kg intraperitoneally twice weekly, Days 1-15, Figs. 2A-D): significantly suppressed | signs of toxicity: diarrhea ([2]; mouse, in vivo, ip, 40 mg/kg): no diarrhea observed | Sensitivity to BCV [3]: high in all cell lines | viability of T-cell lymphoma cells [3]: decreased | animal's health status ([4]; Z4739 in NSG mice, 40 mg/kg intraperitoneally twice weekly): good | enlargement of the lymphoma (tumor size) ([4]; Z4739 in NSG mice, 40 mg/kg intraperitoneally twice weekly, Figs. 10A-D): significantly suppressed | tumor volume ([4]; Z4739 in NSG mice, 40 mg/kg intraperitoneally twice weekly, between Day 0 and Day 21, Fig. 10A): almost no increase in tumor volume observed | signs of toxicity: weight loss or diarrhea ([4]; mouse, in vivo, ip, 40 mg/kg): no significant weight loss or diarrhea was observed | expression of immune activation-related genes such as INFγ [5]: increased | expression of MYC ([5]; Figs. 12A-C): decreased | expression of MYC-related gene groups ([5]; GSEA): decreased | expression of other oncogenic genes such as those related to mTOR ([5]; GSEA): decreased | DNA damage (phospho-H2AX) [6]: increase | MYC protein [6]: decrease | PD-L1 [6]: increase | apoptosis indicators (cleaved PARP, cleaved caspase-3) [6]: increase | cell cycle-related indicators (phospho-CHK1 Ser317/Ser345) [6]: increase | Sensitivity to BCV [7]: varied for each cell line | viability of B-cell lymphoma cells [7]: decreased | animal's health status ([8]; OCI-LY19 in NSG mice, 40 mg/kg intraperitoneally twice weekly): good | enlargement of lymphoma (tumor size) ([8]; OCI-LY19 in NSG mice, 40 mg/kg intraperitoneally twice weekly, Days 1-7, Figs. 15A-D): significantly suppressed | signs of toxicity: weight loss or diarrhea ([8]; mouse, in vivo, ip, 40 mg/kg): no weight loss or diarrhea observed
